Experimental data as given in PubChem BioAssay AID1845206 (Molecular Pharmacology Branch, DTP, NCI, 2023).

Tested on: NCI-H1618 multicellular tumor spheroid viability
Experiment: Anticancer human tumor NCI-H1618 cell line growth inhibition;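 further: spheroids exposed to agents for 7 days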
Settings: for IC50: curve of first compound; for viability, T/C: stronger effect = lower value
Method in brief: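 Complex spheroids of malignant cells with endothelial cells and mesenchymal stem cells; agents alone or combined, from near clinical Cmax (or 10 microM if unknown) down in half-log steps, 0.25% DMSO final.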

[1] = second compound 30 pM, first compound 0.00949 µM
[2] = second compound 30 pM, first compound 0.03 µM
[3] = second compound 30 pM, first compound 0.0949 µM
[4] = second compound 30 pM, first compound 0.3 µM
[5] = second compound 30 pM, first compound 0.949 µM
[6] = second compound 30 pM, first compound 3 µM
[7] = second compound 94.9 pM, first compound 0.00949 µM
[8] = second compound 94.9 pM, first compound 0.03 µM
[9] = second compound 94.9 pM, first compound 0.0949 µM
[10] = second compound 94.9 pM, first compound 0.3 µM
[11] = second compound 94.9 pM, first compound 0.949 µM
[12] = second compound 94.9 pM, first compound 3 µM
[13] = second compound 0.0003 µM, first compound 0.00949 µM
[14] = second compound 0.0003 µM, first compound 0.03 µM
[15] = second compound 0.0003 µM, first compound 0.0949 µM
[16] = second compound 0.0003 µM, first compound 0.3 µM
[17] = second compound 0.0003 µM, first compound 0.949 µM
[18] = second compound 0.0003 µM, first compound 3 µM
[19] = second compound 0.000949 µM, first compound 0.00949 µM
[20] = second compound 0.000949 µM, first compound 0.03 µM
[21] = second compound 0.000949 µM, first compound 0.0949 µM
[22] = second compound 0.000949 µM, first compound 0.3 µM
[23] = second compound 0.000949 µM, first compound 0.949 µM
[24] = second compound 0.000949 µM, first compound 3 µM
[25] = second compound 0.003 µM, first compound 0.00949 µM
[26] = second compound 0.003 µM, first compound 0.03 µM
[27] = second compound 0.003 µM, first compound 0.0949 µM
[28] = second compound 0.003 µM, first compound 0.3 µM
[29] = second compound 0.003 µM, first compound 0.949 µM
[30] = second compound 0.003 µM, first compound 3 µM

SMILES | IC50 (second compound 30 pM) | IC50 (second compound 94.9 pM) | IC50 (second compound 0.0003 µM) | IC50 (second compound 0.000949 µM) | IC50 (second compound 0.003 µM) | viability, T/C [3] | viability, T/C [4] | viability, T/C [5] | viability, T/C [6] | viability, T/C [9] | viability, T/C [10] | viability, T/C [11] | viability, T/C [12] | viability, T/C [15] | viability, T/C [16] | viability, T/C [17] | viability, T/C [18] | viability, T/C [21] | viability, T/C [22] | viability, T/C [23] | also measured
CNCc1ccc(-c2cc(-c3nc(-c4ccc(S(=O)(=O)C(C)C)cc4)cnc3N)on2)cc1 + COc1cc2c(cc1O)CCNC21CSC2c3c(OC(C)=O)c(C)c4c(c3C(COC1=O)N1C(O)C3Cc5cc(C)c(OC)c(O)c5C(C21)N3C)OCO4 | 224 nM | 130 nM | < 9.49 nM | < 9.49 nM | < 9.49 nM | 110% | 31.5% | 5.25% | 3.91% | 59.5% | 22.3% | 2.88% | 2.64% | 58.8% | 12.6% | 2.49% | 4.13% | 6.24% | 3.07% | 3.69% | viability, T/C [1]: 103%; viability, T/C [2]: 100%; viability, T/C [7]: 98.5%; viability, T/C [8]: 93.6%; viability, T/C [13]: 11.2%; viability, T/C [14]: 17.8%; viability, T/C [19]: 3.91%; viability, T/C [20]: 15.3%; viability, T/C [24]: 2.71%; viability, T/C [25]: 3.93%; viability, T/C [26]: 6.21%; viability, T/C [27]: 4.41%; viability, T/C [28]: 3.43%; viability, T/C [29]: 2.55%; viability, T/C [30]: 0.78%
Cc1sc2c(c1C)C(c1ccc(Cl)cc1)=NC(CC(=O)Nc1ccc(O)cc1)c1nnc(C)n1-2 (stereo not given) + COc1cc2c(cc1O)CCNC21CSC2c3c(OC(C)=O)c(C)c4c(c3C(COC1=O)N1C(O)C3Cc5cc(C)c(OC)c(O)c5C(C21)N3C)OCO4 | 275 nM | 157 nM | < 9.49 nM | < 9.49 nM | < 9.49 nM | 93.5% | 45.9% | 11.1% | 2.15% | 63.9% | 29.9% | 3.78% | 1.08% | 10.2% | 11.7% | 0.74% | 0.78% | 1.78% | 0.74% | 0.65% | viability, T/C [1]: 86.2%; viability, T/C [2]: 116%; viability, T/C [7]: 72.2%; viability, T/C [8]: 84.4%; viability, T/C [13]: 22.7%; viability, T/C [14]: 2.53%; viability, T/C [19]: 4.7%; viability, T/C [20]: 2.6%; viability, T/C [24]: 0.37%; viability, T/C [25]: 2.16%; viability, T/C [26]: 2.42%; viability, T/C [27]: 0.82%; viability, T/C [28]: 0.41%; viability, T/C [29]: 0.26%; viability, T/C [30]: 0.46%
Cn1ncnc1[C@H]1c2n[nH]c(=O)c3cc(F)cc(c23)N[C@@H]1c1ccc(F)cc1 + COc1cc2c(cc1O)CCNC21CSC2c3c(OC(C)=O)c(C)c4c(c3C(COC1=O)N1C(O)C3Cc5cc(C)c(OC)c(O)c5C(C21)N3C)OCO4 | 45.4 nM | < 9.49 nM | < 9.49 nM | < 9.49 nM | < 9.49 nM | 53% | 10.2% | 2.52% | 3.76% | 3.24% | 2.22% | 2.54% | 4.25% | 2.76% | 2.88% | 3.67% | 2.53% | 3.71% | 4.08% | 3.69% | viability, T/C [1]: 95.5%; viability, T/C [2]: 46.9%; viability, T/C [7]: 44.3%; viability, T/C [8]: 37.8%; viability, T/C [13]: 10.6%; viability, T/C [14]: 5.28%; viability, T/C [19]: 4.52%; viability, T/C [20]: 4.93%; viability, T/C [24]: 4.06%; viability, T/C [25]: 2.91%; viability, T/C [26]: 4.29%; viability, T/C [27]: 5.46%; viability, T/C [28]: 2.85%; viability, T/C [29]: 3.44%; viability, T/C [30]: 2.38%
O=C(c1cc(Cc2n[nH]c(=O)c3ccccc23)ccc1F)N1CCN(C(=O)C2CC2)CC1 + COc1cc2c(cc1O)CCNC21CSC2c3c(OC(C)=O)c(C)c4c(c3C(COC1=O)N1C(O)C3Cc5cc(C)c(OC)c(O)c5C(C21)N3C)OCO4 | 5700 nM | 1830 nM | < 94.9 nM | < 94.9 nM | < 94.9 nM | 103% | 97.2% | 98.2% | 88.1% | 85.7% | 76.1% | 96.7% | 22.7% | 11.3% | 2.62% | 33.6% | 22% | 4.82% | 3.59% | 4.37% | viability, T/C (second compound 30 pM, first compound 9.49 µM): 19.8%; viability, T/C (second compound 30 pM, first compound 30 µM): 5.66%; viability, T/C (second compound 94.9 pM, first compound 9.49 µM): 11.6%; viability, T/C (second compound 94.9 pM, first compound 30 µM): 5.96%; viability, T/C (second compound 0.0003 µM, first compound 9.49 µM): 3.44%; viability, T/C (second compound 0.0003 µM, first compound 30 µM): 6.61%; viability, T/C [24]: 3.86%; viability, T/C (second compound 0.000949 µM, first compound 9.49 µM): 3.51%; viability, T/C (second compound 0.000949 µM, first compound 30 µM): 3.9%; viability, T/C [27]: 2.74%; viability, T/C [28]: 2.65%; viability, T/C [29]: 3.06%; viability, T/C [30]: 3.24%; viability, T/C (second compound 0.003 µM, first compound 9.49 µM): 3.55%; viability, T/C (second compound 0.003 µM, first compound 30 µM): 3.23%
